Values after ≈ are worked out from the molar mass of the structure shown. Active and inactive are the calls of the source. The calls are words filed in the database; no cut-off is given here.
What was measured:
[1] = Apparent permeability from basolateral to apical side in human Caco2 cells; type: ADME, cell-based; conditions: caco-2
[2] = tested on: Streptococcus pyogenes; assay: Antimicrobial activity against Streptococcus pyogenes; type: functional, organism-based
[3] = tested on: Vero; assay: Cytotoxicity against African green monkey Vero cells by cell titer glo assay; type: cell-based; conditions: Chlorocebus sabaeus
[4] = tested on: Streptococcus pneumoniae; assay: Antimicrobial activity against Streptococcus pneumoniae; type: functional, organism-based
[5] = tested on: Acinetobacter baumannii; assay: Antimicrobial activity against Acinetobacter baumannii; type: functional, organism-based
[6] = tested on: Bacillus subtilis; assay: Antimicrobial activity against Bacillus subtilis; type: functional, organism-based
[7] = tested on: Bacillus anthracis; assay: Antimicrobial activity against Bacillus anthracis; type: functional, organism-based
[8] = Apparent permeability from apical to basolateral side in human Caco2 cells; type: ADME, cell-based; conditions: caco-2
[9] = tested on: Klebsiella pneumoniae; assay: Antimicrobial activity against Klebsiella pneumoniae; type: functional, organism-based
[10] = tested on: Enterococcus faecalis; assay: Antimicrobial activity against Enterococcus faecalis; type: functional, organism-based
[11] = Plasma protein binding in human; type: ADME, cell-free
[12] = tested on: Mycobacterium tuberculosis; assay: Antimicrobial activity against Mycobacterium tuberculosis H37Rv assessed as growth inhibition after 7 days by microbroth dilution method; type: functional; conditions: 168 h
[13] = tested on: Staphylococcus aureus; assay: Antimicrobial activity against Staphylococcus aureus; type: functional, organism-based
[14] = Half life in mouse liver microsomes; type: ADME; conditions: for t1/2: microsomes
[15] = tested on: Escherichia coli; assay: Antimicrobial activity against Escherichia coli; type: functional, organism-based
[16] = AUC(infinity) in C57BL/6 mouse at 10 mg/kg, iv; type: ADME, organism-based; design: dose 10 mg/kg, time infinity, route intravenous; conditions: in vivo
[17] = Half life in C57BL/6 mouse at 10 mg/kg, iv; type: ADME, organism-based; conditions: in vivo
[18] = tested on: Mycobacterium tuberculosis; assay: Antimicrobial activity against Mycobacterium tuberculosis H37Rv infected in C57BL/6 mouse assessed as reduction in bacterial load at 100 mg/kg, po after 28 days; type: functional, organism-based
[19] = Clearance in C57BL/6 mouse at 10 mg/kg, iv; type: ADME, organism-based; conditions: in vivo
[20] = Volume of distribution at steady state in C57BL/6 mouse at 10 mg/kg, iv; type: ADME, organism-based; conditions: in vivo, read-out: Vdss
[21] = tested on: Mus musculus; assay: Toxicity in C57BL/6 mouse at 300 mg/kg, po after 3 days; type: organism-based; conditions: in vivo, 72 h

Row | Compound | Papp [1] | Activity [2] | IC50 [3] | Activity [4] | Activity [5] | Activity [6] | Activity [7] | Papp [8] | Activity [9] | Activity [10] | PPB [11] | MIC [12] | Activity [13] | t1/2 [14] | Activity [15] | also measured
1 | O=[N+]([O-])c1cn2c(n1)OC[C@@H](OCc1ccc(N3CCCCC3)nc1)C2 | 290.4 nm/s | inactive | > 100 mg/L | inactive | inactive | inactive | inactive | 376.4 nm/s | inactive | inactive | 76.7% | 0.78 mg/L (≈ 2.17 µM) | inactive | 1.3 h | inactive | –
2 | O=[N+]([O-])c1cn2c(n1)OC[C@@H](OCc1ccc(OC(F)(F)F)cc1)C2 [PRETOMANID] | 131.4 nm/s | inactive | 44 mg/L (≈ 122 µM) | inactive | inactive | inactive | inactive | 315.8 nm/s | inactive | inactive | 92.9% | 0.39 mg/L (≈ 1.09 µM) | inactive | – | inactive | half-life ([14]; liver microsomes): 8.1 h
3 | O=C1CSCCN1c1ccc(CO[C@@H]2COc3nc([N+](=O)[O-])cn3C2)cn1 | 314.4 nm/s | inactive | 15.3 mg/L (≈ 39.1 µM) | inactive | inactive | inactive | inactive | 400 nm/s | inactive | inactive | 32.1% | 50 mg/L (≈ 128 µM) | inactive | 0.63 h | inactive | –
4 | O=[N+]([O-])c1cn2c(n1)OC[C@@H](OCc1ccc(N3CCCCC3)cc1)C2 | 263.3 nm/s | inactive | 11.6 mg/L (≈ 32.4 µM) | inactive | inactive | inactive | inactive | 317.6 nm/s | inactive | inactive | 83% | 0.39 mg/L (≈ 1.09 µM) | inactive | 0.49 h | inactive | –
5 | O=[N+]([O-])c1cn2c(n1)OC[C@@H](OCc1ccc(N3CCSCC3)cc1)C2 | 261.3 nm/s | inactive | 13.7 mg/L (≈ 36.4 µM) | inactive | inactive | inactive | inactive | 266.8 nm/s | inactive | inactive | 74.5% | 6.25 mg/L (≈ 16.6 µM) | inactive | 0.07 h | inactive | –
6 | O=C1CCCCN1c1ccc(CO[C@@H]2COc3nc([N+](=O)[O-])cn3C2)cc1 | 342 nm/s | inactive | > 100 mg/L | inactive | inactive | inactive | inactive | 472.5 nm/s | inactive | inactive | 66.4% | 1.56 mg/L (≈ 4.19 µM) | inactive | 6.7 h | inactive | –
7 | CC(=O)NC[C@H]1CN(c2ccc(N3CCOCC3)c(F)c2)C(=O)O1 [LINEZOLID] | – | – | – | – | – | – | – | – | – | – | 17.8% | 0.3 mg/L (≈ 0.889 µM) | – | – | – | –
8 | O=C1CCCCN1c1ccc(CO[C@@H]2COc3nc([N+](=O)[O-])cn3C2)cc1F | 304.5 nm/s | inactive | > 100 mg/L | inactive | inactive | inactive | inactive | 462.6 nm/s | inactive | inactive | 74.8% | 3.13 mg/L (≈ 8.02 µM) | inactive | 3.5 h | inactive | –
9 | O=C1CCCCN1c1ccc(CO[C@@H]2COc3nc([N+](=O)[O-])cn3C2)cn1 | 295.6 nm/s | inactive | > 100 mg/L | inactive | inactive | inactive | inactive | 336.8 nm/s | inactive | inactive | 39.6% | 3.13 mg/L (≈ 8.38 µM) | inactive | 20.4 h | inactive | –
10 | O=[N+]([O-])c1cn2c(n1)OC[C@@H](OCc1ccc(N3CCSCC3)c(F)c1)C2 | 242.6 nm/s | inactive | 14.2 mg/L (≈ 36 µM) | inactive | inactive | inactive | inactive | 321.1 nm/s | inactive | inactive | 83.2% | 3.13 mg/L (≈ 7.94 µM) | inactive | 0.06 h | inactive | –
11 | O=[N+]([O-])c1cn2c(n1)OC[C@@H](OCc1ccc(N3CCOCC3)cc1)C2 | 322.5 nm/s | inactive | 42.3 mg/L (≈ 117 µM) | inactive | inactive | inactive | inactive | 414.9 nm/s | inactive | inactive | 39.4% | 3.13 mg/L (≈ 8.69 µM) | inactive | 8.3 h | inactive | –
12 | O=C1CSCCN1c1ccc(CO[C@@H]2COc3nc([N+](=O)[O-])cn3C2)cc1 | 380.5 nm/s | inactive | > 100 mg/L | inactive | inactive | inactive | inactive | 395.6 nm/s | inactive | inactive | 59.8% | 25 mg/L (≈ 64 µM) | inactive | 0.51 h | inactive | –
13 | O=C1COCCN1c1ccc(CO[C@@H]2COc3nc([N+](=O)[O-])cn3C2)cn1 | 238.2 nm/s | inactive | > 100 mg/L | inactive | inactive | inactive | inactive | 434.1 nm/s | inactive | inactive | 27.9% | 3.13 mg/L (≈ 8.34 µM) | inactive | > 4 h | inactive | –
14 | O=C1CSCCN1c1ccc(CO[C@@H]2COc3nc([N+](=O)[O-])cn3C2)cc1F | 370.5 nm/s | inactive | > 100 mg/L | inactive | inactive | inactive | inactive | 333.9 nm/s | inactive | inactive | 77.6% | 50 mg/L (≈ 122 µM) | inactive | 0.6 h | inactive | –
15 | O=[N+]([O-])c1cn2c(n1)OC[C@@H](OCc1ccc(N3CCOCC3)c(F)c1)C2 | 332.8 nm/s | inactive | 23.1 mg/L (≈ 61.1 µM) | inactive | inactive | inactive | inactive | 433.3 nm/s | inactive | inactive | 51.3% | – | inactive | 7.7 h | inactive | AUC(0-inf) [16]: 10.1 µg·h/mL; half-life [17]: 0.98 h; Activity [18]: inactive; clearance [19]: 0.99 L/h/kg; Vd [20]: 1.16 L/kg; Activity [21]: Non-toxic
16 | O=[N+]([O-])c1cn2c(n1)OC[C@@H](OCc1ccc(N3CCOCC3)nc1)C2 | 276.3 nm/s | inactive | > 100 mg/L | inactive | inactive | inactive | inactive | 371.3 nm/s | inactive | inactive | 14.5% | 3.13 mg/L (≈ 8.66 µM) | inactive | 28.1 h | inactive | –
17 | O=[N+]([O-])c1cn2c(n1)OC[C@@H](OCc1ccc(N3CCCCC3)c(F)c1)C2 | 284.7 nm/s | inactive | 56.2 mg/L (≈ 149 µM) | inactive | inactive | inactive | inactive | 354.6 nm/s | inactive | inactive | 85.6% | < 0.2 mg/L | inactive | 0.41 h | inactive | –

Reference: ChEMBL document CHEMBL3745652, “Synthesis and evaluation of pretomanid (PA-824) oxazolidinone hybrids” (Bioorg Med Chem Lett, 2016)
